Source: a melting point compilation (Tetko et al.)

melting point [°C] | SMILES
87 | O=c1n(CCCN2CCN(c3cccc(Cl)c3)CC2)nc2ccccn12
213 | CC(C=CC=C(C)C=CC1(O)C(C)(C)CCCC1(C)O)=CC=CC=C(C)C=CC(=O)O (centres undefined)
115 | Cc1ccccc1NC(=O)c1cnc(C(C)(C)C)c(Cl)n1
38.5 | CCCCCCCCC(CCCCCCCC)C(=O)O
63 to 65 | O=C(OCc1ccccc1)[C@@H](O)[C@H](O)C(=O)OCc1ccccc1
26.5 | NC=S
192 to 194 | Cc1nn2c(-c3ccccc3)nnc2s1
246 to 247 | O=C(Nc1cccc(Cl)c1)Nc1nnc(-c2ccc(Cl)cc2)o1
241 | CC1=NN(c2ccccc2)C(=O)C1C(c1ccc(O)cc1)C1C(=O)N(c2ccccc2)N=C1C (centres undefined)
124 | CCCCC1C(=O)N(c2ccccc2)N(c2ccc(O)cc2)C1=O (centres undefined)
69 to 71 | COC(=O)c1sccc1NN
186 | Cc1ccc(-c2csc3nc(C(F)(F)F)cc(=O)n23)cc1
219 to 220 | CC1=C/C(=N/NC(N)=O)C(C(C)C)CC1 (centres undefined)
215 to 217 | O=C(O)c1cccc(N2CCCC2)c1
186 to 188 | CC(CCC(=O)O)C1CCC2C3CCC4CCCCC4(C)C3CC(O)C12C (centres undefined)
122 | CN(C(=O)N(C)c1ccccc1)c1ccccc1
52 | O=[N+]([O-])c1ccnc(Cl)c1
49 to 52 | O=C(O)CSCCOc1ccccc1
41 to 42 | S=C=Nc1ccc(Oc2ccccc2)nc1
153 to 156 | Cn1c(S)nnc1-c1cccs1
320 | Nc1nc(O)nc2[nH]ncc12
68 to 71 | CCCCCCCCCCCCCCCCCCCCCO

melting point [°C] | SMILES
57 to 58 | COc1ccc(C(=O)CC(=O)C(F)(F)F)cc1
76 | COc1ccc(OC)c(C(=O)CCCCC(=O)O)c1
142 | CCCCCCNC(=O)C=Cc1ccc(O)c(O)c1
120 | CCOC(=O)c1sc2nccnc2c1N
245 to 248 | Cc1nc(-c2ccc(S(=O)(=O)N3CCOCC3)cc2)c(-c2ccc(S(=O)(=O)N3CCOCC3)cc2)o1
124 | O=C(c1cccs1)c1noc(-c2cccc3ccccc23)c1S(=O)(=O)c1ccccc1
52 to 55 | COC(=O)c1c(OC)c(OC)c(C(=O)OC)c(C(=O)OC)c1OC
71.5 | Cc1ccc([N+](=O)[O-])c2ccccc12
154 to 159 | CC1(NC(=O)c2ccccc2)COCOC1=O (racemic)
215 | CC(=O)C(=NNc1ccc(C(=O)O)cc1)C(C)=O
190 to 192 | Fc1ccc(-c2cc3ccccc3[nH]2)cc1
34 | CCCCN1C(=O)c2ccccc2C1=O
236 | C/C(=N\NC(N)=O)C1CC2(C)CCC1C2(C)C (centres undefined)
242 | C=C1/C(=N/Nc2cc(Cl)c(Cl)cc2Cl)C(=O)N(C)C(=O)N1C
191 | COc1ccc(OC)c2c(=O)c(=O)c12
5 | Cc1cc(Cl)ccc1Cl
143 | C=CCn1c(N)cc(=O)n(CC)c1=O
133 to 136 | N#Cc1cccc(N2CCCCC2)c1
62 | Cc1cc(Cl)c(N=C=O)cc1N=C=O
168 | O=C(N[C@@H](Cc1ccccc1Br)C(=O)O)OCC1c2ccccc2-c2ccccc21
62.5 | COC1=C(OC)C(=O)C(C)=C(C)C1=O
52 | Brc1ccc2c3c(cccc13)CC2

SMILES | melting point [°C]
c1ccc2sc(SNC3CCCCC3)nc2c1 | 98
COc1ccc(NN=C2C(=O)NC(=O)NC2=O)cc1 | 264
CCOC(=O)C1(c2ccccc2)CCN(C)CC1 | 270
CNCC(O)c1ccccc1 (racemic) | 74 to 76
ClCC1C(CCl)C2(Cl)C(Cl)=C(Cl)C1(Cl)C2(Cl)Cl (centres undefined) | 105
